# Experimental data taken from US20070161697A1, “Hydrazide type compounds and the use thereof in pharmaceutical compositions for the treatment of cardiovascular diseases” (priority 2004, published 2007).
# Read-outs that look alike come from different tables or passages of the source.
# Key:
# ApoE −/− mice [1] = test: Free cholesterol in plasma, ApoE −/− mice on normal non-enriched dietary regimen; assay type: in vivo; conditions: 1 mg/kg; 3 months; p<0.05
# Description: (§1) Firstly, mice devoid of the coding gene for Apo lipoprotein E (ApoE −/−) have been used. These mice represent a model of choice of studying early atherosclerosis and development of a plaque rich in foamy macrophages. Male C57BL/6J mice homozygote for deletion of the ApoE gene were subjected to a normal dietary regimen until the age of eight weeks. These mice (n=8 per group) subsequently received ad libitum and for 12 weeks either a dietary regimen not enriched with cholesterol or fat, or an enriched regimen, containing 1.5 g/kg of cholesterol and 200 g/kg of fat of milk origin. The untreated mice underwent daily intraperitoneal injections of a solution containing DMSO at 10%. The treated mice received by intraperitoneal injection the same solution containing 2 or 20 μg (i.e. 0.1 mg/kg/day or 1 mg/kg/day) of the compound CGP 02-01. Following the blood sample for the biochemical analyses, the mice were killed.
# Measurement of free cholesterol may be performed by an enzymatic method. The free cholesterol is oxidised by cholesterol oxidase into Delta 4 cholestenon and simultaneously produces hydrogen peroxide. The hydrogen peroxide subsequently allows oxidative condensation of the DHESA and the aminoantipyrinre, producing a blue colour. The quantity of free cholesterol is subsequently measured by the absorbance of the blue colour. […]
# Wistar rats [2] = test: Plasma glucose level (glycaemia) in rats on fructose-rich regimen; assay type: in vivo; conditions: oral, 21 days of treatment, FIG. 17
# Protocol: Secondly, the activity of the compound CGP 02-01 was studied using a reference rat-fructose model. Groups of Wistar rats (n=12) were subjected for 3 weeks to a dietary regimen containing […] of fructose. […] Groups of rats subsequently received by forced feeding 50 mg/kg of the compound CGP 02-01 dissolved in a 2% tween solution prepared in methylcellulose. The blood samples for the biochemical analyses were performed after 1, 2 and 3 weeks. Independent groups of rats wee treated under the same conditions with metformin hydrochloride at a dose of 50 mg/kg. The metformin served as a reference in this metabolic syndrome model.
# THP1 cells = test: Inhibition of binding and accumulation of cyanine 3-marked LDLox as lipid vesicles in differentiated THP1 macrophage cells; assay type: cell-based
# Protocol: The culture medium may be replaced every two days.
# In the present example, the accumulation of lipid vesicles within the cell was measured using THP1 cells following fixation with paraformaldehyde in PBS medium using a solution containing a fluorescent marker of the Oil Red O type in order to visualise the vesicles. The image of the cells rich in vesicles was analysed using a microscope ecqluipped with a CCD camera and software necessary for the analysis.
# The medium was replaced every 2-3 days.
# The differentiated THP-1 were subsequently incubated with LDLox coupled with cyanine-3 (1.5 μg/ml) in the presence or absence of the molecule CGP02-01 (concentrations of between 10^−5M and 3.1.6 10^−10M) for 24 hours at 37° C., 5% CO2. […] Each image was analysed and quantified with the MetaMorph software (Universal Imaging).
# Wistar rats [3] = test: Circulating triglycerides, rats on dietary regimen rich in fructose; assay type: in vivo; conditions: oral
# Protocol: Secondly, the activity of the compound CGP 02-01 was studied using a reference rat-fructose model. Groups of Wistar rats (n=12) were subjected for 3 weeks to a dietary regimen containing […] of fructose. […] Groups of rats subsequently received by forced feeding 50 mg/kg of the compound CGP 02-01 dissolved in a 2% tween solution prepared in methylcellulose. The blood samples for the biochemical analyses were performed after 1, 2 and 3 weeks. Independent groups of rats wee treated under the same conditions with metformin hydrochloride at a dose of 50 mg/kg. The metformin served as a reference in this metabolic syndrome model. Assay of serum triglycerides may be performed enzymatically using the commercially available kit. One may use kits from Biomérieux for example (ref. 61.238). In summary, the triglycerides are treated with a lipase in order to generate fatty acids. In the presence of ATP, the glycerol is transformed by glycerokinase into glycerol 3 phosphate. The glycerol 3 phosphate is subsequently transformed into dihydroxyacetone in generating oxygenated water (H202) which may be detected by formation of quinoneimine in the presence of parachlorophenol, amino-4-antipyrin and peroxidase. The intensity of the quinoneimine coloration is subsequently measured at 505 nm. This coloration is proportional to the quantity of triglycerides present in the sample.
# ApoE negative mice = test: Histological analysis of the aortic lesions (atheroma plaque) of ApoE negative mice; assay type: in vivo; conditions: aorta of treated vs untreated mice; FIG. 6
# Description: as §1
# The aortas of the mice are fixed with paraformaldehyde and are dissected into 10 μm sections for histological analysis of the lesions (FIG. 6).
# ApoE −/− mice [4] = test: Analysis of coronary ischaemia in ApoE −/− mice; assay type: in vivo; conditions: injected; normal or cholesterol-rich regimen; FIG. 15
# Description: as §1
# After killing the ApoE −/− mice subjected to a normal dietary regimen or a dietary regimen rich in cholesterol, the hearts of these animals are observed macroscopically. The rate of ischaemic lesions is observed (FIG. 15) and quantified by the presence or absence of lesions (FIG. 16).
# rats = test: Hyperglycaemia test (glucose tolerance) in rats on fructose-rich regimen; assay type: in vivo; conditions: oral, glucose shock after 14th day, FIG. 18
# Description: Rats (n=12) were subjected to a dietary regimen rich in fructose (10%) for 21 days. After the 14th day, hyperglycaemic shock is induced by administration of 2 g/kg of glucose in the presence or absence of the compound CGP 02-01 administered via the oral route. The plasma glucose level is subsequently measured.
# ApoE −/− mice [5] = test: Triglyceride deposit in the aortas of ApoE −/− mice; assay type: in vivo; conditions: control 185±33
# Description: as §1
# The triglycerides which accumulate in the aortic wall were measured in the following manner: the aortas of the animals are rinsed with physiological saline after dissection. The lipid mass of the adventitia is eliminated by dissection and the intima media is dehydrated. The triglyceride level is measured and expressed as the weight of triglycerides per dry weight of tissue.
smiles,measurement,setting,value
"COc1cc(O)c(/C=N/NC(=O)c2cc3ccccc3s2)c(OC)c1 [CGP02-01, N′-[(1E)-(2-hydroxy-4,6-dimethoxyphenyl)methylene]-1-benzothiophene-2-carbohydrazide]",Effect on plasma free cholesterol variation vs untreated,ApoE −/− mice [1],22.7%
same,Increase in glycaemia,Wistar rats [2],stabilises this increase in glycaemia
same,Inhibition of the accumulation of lipid vesicles,"THP1 cells; 1 μM, differentiated THP1 macrophage cells",major inhibition
same,inhibition at 2.5 µM,"THP1 cells; Homo sapiens, THP-1, cells expressing the scavenger CD36, lipoproteins marked with cyanine 3, read-out: Inhibition of accumulation of LDLox in (%)",76%
same,IC50,"THP1 cells; Homo sapiens, THP-1, lipoproteins marked with Cyanine 3, dose response curve, FIG. 1, read-out: CI50, accumulation of lipid vesicles in macrophage cell",500 nM
same,inhibition at 2.5 µM,"THP1 cells; Homo sapiens, THP-1 cells, 24 hours, read-out: Inhibition at 2.5 μM on THP-1 cells (24 hours)",76%
same,Plasma triglyceride level,"Wistar rats [3]; 50 mg/kg, 3 weeks, control 1.39±0.13",0.47 ± 0.07 g/L
same,Variation of plasma triglyceride level,Wistar rats [3]; p<0.01,66.2%
same,Foamy macrophages and inflammatory reaction in the atheroma plaque,ApoE negative mice,significant reduction in these macrophages
same,melting point,,205.4 °C
same,Coronary ischaemic (cardiac) lesions,ApoE −/− mice [4],considerably reduced
same,Effect against induced hyperglycaemia (2 g/kg glucose),rats,protective effect
same,Triglyceride deposit on the aortic wall,ApoE −/− mice [5]; 0.1 mg/kg,156 ± 31 µg/mg
same,Triglyceride deposit on the aortic wall,"ApoE −/− mice [5]; 1 mg/kg, three months, n=8",131 ± 42 µg/mg (dry weight)
